Data taken from US20030232851A1, “Viral treatment” (The Procter & Gamble Company, priority 1999, published 2003).
≈ marks a conversion by molar mass, not a printed value. Where “and” joins values, the source holds several entries; their conditions need not be identical. Identical values can stand only once.

How the values were obtained:
[1] = test system: HIV-1 cell line, CEMIIIB; assay: Long term in vitro study, CEMIIIB, reverse transcriptase; type: cell-based
Method: A microtiter-based reveres transcriptase (RT) reaction is utilized (Buckheit et al (1991) AIDS Research and Human Retroviruses 7:295-302). Tritiated thymidine triphosphate (NEN)(TTP) is resuspended in distilled water at 5 Ci/ml. Poly rA and oligo dT are prepared as a stock solution which is kept at −20° C. The RT reaction buffer is prepared fresh on a daily basis and consists of 125 μl 1M EGTA, 125 μl water, 125 μl Triton X-100, 50 μl Tris (pH 7.4), 50 μl 1 MDDT, and 40 μl 1M MgCl2. These three solutions are mixed together in a ratio of 1 part TTP, 2.5 parts poly rA:oligo dT, 2.5 parts reaction buffer and 4 parts distilled water. Ten microliters of this reaction mixture is placed in a round bottom microtiter place and 15 μl of virus containing supernatant is added and mixed. The plate is incubated at 37° C. for 60 minutes. Following reaction, the reaction volume is spotted onto filter mats, washed 6 times for 5 minutes each in a 5% sodium phosphate buffer, 2 times for 1 minute each in distilled water, 2 times for 1 minute each in 70% ethanol, and then dried. The dried filter mat is placed in a plastic sample bag, Betaplate scintillation fluid is added and the bag is heat sealed. Incorporated radioactivity is quantified utilizing a Wallac Microbeta scintillation counter.
Acute infection of most established human cell lines with HIV-1 results in the eventual establishment of a constitutive virus-producing chronically infected cell line. The cells can be passaged for long periods of time in culture without loss of virus production. These cells may be utilized to evaluate the effects of anti-HIV compounds on syncytium formation or to evaluate the effects of anti-HIV compounds on levels of virus production from these cells. […] Each of the cells contains an integrated HIV genome or provirus. Chronically infected CEM, H9 and U937 cell lines have been prepared and cultured by Southern Research Institute, Frederick Md. and are available from them.
CEM-SS cells chronically infected with HIV isolate, for example SKI (CEM-SKI) are cultured in RPMI1640 tissue culture medium supplemented with 10% fetal bovine serum and antibiotics. […] CEM-SKI or other infected cells with no added drug are used as the control cells. Cells are allowed to grow to a density of approximately 1×10^6 cells/ml and are then passaged at a 1:10 dilution. […] The drug concentration in the flask is then increased two-fold and the cells maintained as above.
The cell populations contain integrated copies of the HIV genome and constitutively produce HIV at relatively high levels or are latently infected and only produce virus after stimulation with phorbol esters, tumor necrosis factor or IL6 (U1 and ACH2). Reductions in virus products were observed when quantifying supernatant reverse transcriptase activity,
A long term in vitro study of 2-(2-thienyl)-imidazolo [4,5-b]pyridine against an HIV-1 cell line, CEMIIIB was conducted at three different levels. The results with CEMIIIB cells were reported at weekly intervals. The CEMIIIB is a viral strain of the CEMSS cell line and is a chronic HIV cell line.

[2] = test system: hepatitis B, HEPG22.2.15; assay: In vitro virus production test of hepatitis B, DNA copy number; type: cell-based

SMILES: c1csc(-c2nc3cccnc3[nH]2)c1 [2-(2-thienyl)-imidazolo [4,5-b]pyridine]
- reverse transcriptase data ([1]; 7 μg/ml, day 4): 4631
- reverse transcriptase data ([1]; 7 μg/ml, day 11): 4222
- reverse transcriptase data ([1]; 7 μg/ml, day 18): 843
- reverse transcriptase data ([1]; 7 μg/ml, day 25): 1052
- reverse transcriptase data ([1]; 7 μg/ml, day 32): 1456
- reverse transcriptase data ([1]; 7 μg/ml, day 39): 4298
- reverse transcriptase data ([1]; 7 μg/ml, day 46): 1643
- reverse transcriptase data ([1]; 7 μg/ml, day 53): 1458
- reverse transcriptase data ([1]; 7 μg/ml, day 60): 1409
- reverse transcriptase data ([1]; 7 μg/ml, day 67): 1903
- reverse transcriptase data ([1]; 7 μg/ml, day 71): 1832
- reverse transcriptase data ([1]; 7 μg/ml, day 74): 1980
- reverse transcriptase data ([1]; 7 μg/ml, day 88): 1520
- reverse transcriptase data ([1]; 7 μg/ml, day 95): 1367
- reverse transcriptase data ([1]; 7 μg/ml, day 102): 1497
- reverse transcriptase data ([1]; 7 μg/ml, day 109): 1165
- reverse transcriptase data ([1]; 15 μg/ml, day 4): 5622
- reverse transcriptase data ([1]; 15 μg/ml, day 11): 1828
- reverse transcriptase data ([1]; 15 μg/ml, day 18): 683
- reverse transcriptase data ([1]; 15 μg/ml, day 25): 741
- reverse transcriptase data ([1]; 15 μg/ml, day 32): 1005
- reverse transcriptase data ([1]; 15 μg/ml, day 39): 948
- reverse transcriptase data ([1]; 15 μg/ml, day 46): 1361
- reverse transcriptase data ([1]; 15 μg/ml, day 53): 1281
- reverse transcriptase data ([1]; 15 μg/ml, day 60): 679
- reverse transcriptase data ([1]; 15 μg/ml, day 67): 1251
- reverse transcriptase data ([1]; 15 μg/ml, day 71): 1241
- reverse transcriptase data ([1]; 15 μg/ml, day 74): 1361
- reverse transcriptase data ([1]; 15 μg/ml, day 88): 1201
- reverse transcriptase data ([1]; 15 μg/ml, day 95): 562
- reverse transcriptase data ([1]; 15 μg/ml, day 102): 1043
- reverse transcriptase data ([1]; 15 μg/ml, day 109): 1036
- reverse transcriptase data ([1]; 30 μg/ml, day 4): 1968
- reverse transcriptase data ([1]; 30 μg/ml, day 11): 2145
- reverse transcriptase data ([1]; 30 μg/ml, day 18): 554
- reverse transcriptase data ([1]; 30 μg/ml, day 25): 436
- reverse transcriptase data ([1]; 30 μg/ml, day 32): 712
- reverse transcriptase data ([1]; 30 μg/ml, day 39): 520
- reverse transcriptase data ([1]; 30 μg/ml, day 46): 281
- reverse transcriptase data ([1]; 30 μg/ml, day 53): 543
- reverse transcriptase data ([1]; 30 μg/ml, day 60): 406
- reverse transcriptase data ([1]; 30 μg/ml, day 67): 391
- reverse transcriptase data ([1]; 30 μg/ml, day 71): 281
- reverse transcriptase data ([1]; 30 μg/ml, day 74): 651
- reverse transcriptase data ([1]; 30 μg/ml, day 88): 241
- reverse transcriptase data ([1]; 30 μg/ml, day 95): 102
- reverse transcriptase data ([1]; 30 μg/ml, day 102): 256
- reverse transcriptase data ([1]; 30 μg/ml, day 109): 376
- reverse transcriptase data on continuation (in words) ([1]; run through 242 days): data remained consistent
- DNA Copy Number, % virus control ([2]; 0.64 μg/ml): 75.3%
- DNA Copy Number, mean ([2]; 0.64 μg/ml): 255.6 per 3 μl
- DNA Copy Number, samples 1-3 ([2]; 0.64 μg/ml): 249.2 per 3 μl and 255.9 per 3 μl and 261.6 per 3 μl
- DNA Copy Number, % virus control ([2]; 2 μg/ml): 39.8%
- DNA Copy Number, mean ([2]; 2 μg/ml): 134.8 per 3 μl
- DNA Copy Number, samples 1-3 ([2]; 2 μg/ml): 134.5 per 3 μl and 124.2 per 3 μl and 145.8 per 3 μl
- DNA Copy Number, % virus control ([2]; 6.4 μg/ml): 8.2%
- DNA Copy Number, mean ([2]; 6.4 μg/ml): 27.9 per 3 μl
- DNA Copy Number, % virus control ([2]; 20 μg/ml): 0.8%
- DNA Copy Number, mean ([2]; 20 μg/ml): 2.7 per 3 μl
- DNA Copy Number, % virus control ([2]; 64 μg/ml): 0.1%
- DNA Copy Number, mean ([2]; 64 μg/ml): 0.4 per 3 μl
- DNA Copy Number, % virus control ([2]; 200 μg/ml): 0%
- DNA Copy Number, mean ([2]; 200 μg/ml): 0.1 per 3 μl
- IC50 ([2]; HepG2 2.2.15, first experiment): 1.6 µg/mL (≈ 7.95 µM)
- IC50 ([2]; HepG2 2.2.15, replicate experiment): 10.7 µg/mL (≈ 53.2 µM)
